Test results reported in patent US6608086B2, “Dihydropyridines and new uses thereof” (Synaptic Pharmaceutical Corporation, priority 1993, dated 2003).
Where two headings read alike, the source gives them in different places.

Assays:
[1] = target: T1, α1B Human Adrenergic Receptor (Homo sapiens, UniProt P35368); experiment: Radioligand binding, [3H]prazosin, cloned human α1B adrenergic receptor; conditions: LM(tk-) cell membranes
T1 construct: The entire coding region of α1B (1563 bp); expressed in transfected cells
T1 sequence (P35368 1-520): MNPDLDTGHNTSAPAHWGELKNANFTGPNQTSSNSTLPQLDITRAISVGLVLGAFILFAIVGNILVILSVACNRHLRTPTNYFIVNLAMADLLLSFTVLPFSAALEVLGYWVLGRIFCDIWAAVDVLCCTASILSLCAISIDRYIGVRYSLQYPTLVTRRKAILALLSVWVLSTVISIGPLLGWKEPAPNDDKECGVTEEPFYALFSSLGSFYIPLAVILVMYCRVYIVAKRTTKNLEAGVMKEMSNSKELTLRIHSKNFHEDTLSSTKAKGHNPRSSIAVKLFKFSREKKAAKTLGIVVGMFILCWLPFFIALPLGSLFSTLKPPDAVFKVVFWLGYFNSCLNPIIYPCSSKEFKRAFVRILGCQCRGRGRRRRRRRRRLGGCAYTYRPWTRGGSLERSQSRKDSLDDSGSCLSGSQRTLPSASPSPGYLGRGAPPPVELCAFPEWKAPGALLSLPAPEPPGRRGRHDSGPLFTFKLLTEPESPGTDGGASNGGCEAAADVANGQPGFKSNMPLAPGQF
Method in brief: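 [3H]prazosin (0.5 nM) binding was run for 20 min at 37° C in pH 7.5 Tris/MgCl2/ascorbate buffer on membranes of LM(tk−) cells stably expressing the cloned receptor. Filtration through GF/B ended the reaction; 10 μM phentolamine gave nonspecific binding.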

[2] = target: T2, α2A receptor (Homo sapiens, UniProt P08913); experiment: Competition binding, [3H]rauwolscine, human α2A receptor
T2 construct: host or cells: LM(tk-) cells, line L-α2A
T2 sequence (P08913 1-465): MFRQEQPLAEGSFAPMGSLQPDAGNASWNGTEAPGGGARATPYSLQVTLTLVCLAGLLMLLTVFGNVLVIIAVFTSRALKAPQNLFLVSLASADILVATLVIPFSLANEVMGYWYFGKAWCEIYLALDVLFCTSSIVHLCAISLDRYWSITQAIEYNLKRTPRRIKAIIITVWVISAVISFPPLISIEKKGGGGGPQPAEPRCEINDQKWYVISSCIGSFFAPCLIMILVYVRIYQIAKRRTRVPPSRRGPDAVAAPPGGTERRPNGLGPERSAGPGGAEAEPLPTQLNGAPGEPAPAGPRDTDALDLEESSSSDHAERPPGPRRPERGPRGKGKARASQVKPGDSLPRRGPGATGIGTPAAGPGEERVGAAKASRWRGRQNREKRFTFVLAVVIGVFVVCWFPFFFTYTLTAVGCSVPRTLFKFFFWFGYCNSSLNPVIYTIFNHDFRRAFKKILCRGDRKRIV
Method in brief: (§1)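 Filter-bound [3H]rauwolscine (0.5 nM) was measured after equilibrium competition with test antagonists on lysates of LM(tk−) cells stably transfected with each human α2 subtype. Buffer: 25 mM glycylglycine, pH 7.6 at room temperature; 10 μM phentolamine gave nonspecific binding.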

[3] = target: T3, α2B receptor (Homo sapiens, UniProt P18089); experiment: Competition binding, [3H]rauwolscine, human α2B receptor
T3 construct: host or cells: LM(tk-) cells, line L-NGC-α2B
T3 sequence (P18089 1-450): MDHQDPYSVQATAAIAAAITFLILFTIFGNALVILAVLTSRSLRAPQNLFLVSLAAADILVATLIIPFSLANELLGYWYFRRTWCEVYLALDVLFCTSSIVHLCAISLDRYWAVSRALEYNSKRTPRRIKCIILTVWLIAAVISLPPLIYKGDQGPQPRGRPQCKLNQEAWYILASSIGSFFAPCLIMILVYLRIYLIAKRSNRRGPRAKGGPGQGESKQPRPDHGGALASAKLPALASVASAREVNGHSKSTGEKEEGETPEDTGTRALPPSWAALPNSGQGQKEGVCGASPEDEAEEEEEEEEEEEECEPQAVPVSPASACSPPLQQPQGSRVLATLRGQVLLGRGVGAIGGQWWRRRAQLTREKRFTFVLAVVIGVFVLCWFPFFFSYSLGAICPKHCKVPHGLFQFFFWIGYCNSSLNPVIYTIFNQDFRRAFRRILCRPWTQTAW
Method in brief: as §1

[4] = target: T4, α2C receptor (Homo sapiens, UniProt P18825); experiment: Competition binding, [3H]rauwolscine, human α2C receptor
T4 construct: host or cells: LM(tk-) cells, line L-α2C
T4 sequence (P18825 1-462): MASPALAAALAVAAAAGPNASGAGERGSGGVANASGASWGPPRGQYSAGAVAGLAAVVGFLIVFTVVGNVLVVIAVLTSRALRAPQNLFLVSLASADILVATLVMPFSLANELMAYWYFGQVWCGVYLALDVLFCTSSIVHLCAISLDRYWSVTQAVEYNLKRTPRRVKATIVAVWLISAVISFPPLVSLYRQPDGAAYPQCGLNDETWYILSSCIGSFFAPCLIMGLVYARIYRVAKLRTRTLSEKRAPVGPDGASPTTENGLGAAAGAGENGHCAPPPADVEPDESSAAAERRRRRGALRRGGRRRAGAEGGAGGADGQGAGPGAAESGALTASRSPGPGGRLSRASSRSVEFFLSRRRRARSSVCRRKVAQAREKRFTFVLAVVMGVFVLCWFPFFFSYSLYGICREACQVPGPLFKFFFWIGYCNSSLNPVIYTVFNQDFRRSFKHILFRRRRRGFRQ
Method in brief: as §1

[5] = cloned human receptor, mean, read-out: PKi alpha-1 1b (converted)
[6] = [3H]rauwolscine, human receptor, LM(tk-) cell lysates, mean, read-out: PKi alpha-2 2a (converted)
[7] = [3H]rauwolscine, human receptor, LM(tk-) cell lysates, mean, read-out: PKi alpha-2 2b (converted)
[8] = [3H]rauwolscine, human receptor, LM(tk-) cell lysates, mean, read-out: PKi alpha-2 2c (converted)
[9] = PKi alpha-1 1b, cloned human α1B receptor
[10] = [3H]rauwolscine, human α2A receptor, LM(tk-) cells, read-out: PKi alpha-2 2a (converted)
[11] = PKi alpha-2 2b, [3H]rauwolscine, human α2B receptor, LM(tk-) cells
[12] = PKi alpha-2 2c, [3H]rauwolscine, human α2C receptor, LM(tk-) cells
[13] = cloned human α1B receptor, read-out: PKi alpha-1 1b (converted)

Compound | Ki [1, 5] [µM] | Ki [2] [µM] | Ki ([3]; PKi alpha-2 2b) [µM] | Ki ([4]; PKi alpha-2 2c) [µM] | also measured
CC1=C(C(N)=O)C(c2ccc([N+](=O)[O-])cc2)C(C(=O)NCCCN2CCC(C(=O)O)(c3ccccc3)CC2)=C(C)N1 (stereo not drawn) [Example 210, 5-Carboxamido-3-{N-[3-(4-carboxy-4-phenylpiperidin-1-yl)propyl]}carboxamido-1,4-dihydro-2,6-dimethyl-4-(4-nitrophenyl)pyridine] | 44.7 | 11 | 23.4 | 21.9 | –
CCC1=C(C(=O)NC)C(c2ccc([N+](=O)[O-])cc2)C(C(=O)NCCCN2CCC(c3ccccc3)(c3ccccc3)CC2)=C(COCCN)N1 (stereo not drawn) [Example 225, 2-((2-Aminoethyl)oxy)methyl-6-ethyl-1,4-dihydro-5-N-methylcarboxamido-4-(4-nitro)phenyl-3-(3-(N-(4,4-diphenylpiperidin-1-yl)propyl))carboxamidopyridine] | 0.501 | 2.04 | 2.51 | 0.417 | –
CCC1=C(C(=O)NC)C(c2ccc([N+](=O)[O-])cc2)C(C(=O)NCCCN2CCC(C(=O)OC)(c3ccccc3)CC2)=C(COCCN)N1 (stereo not drawn) [Example 229, 2-((2-Aminoethyl)oxy)methyl-6-ethyl-1,4-dihydro-3-(N-(3-(4-methoxycarbonyl-4-phenylpiperidin-1-yl)propyl))carbo xamido-5-N-methylcarboxamido-4-(4-nitro)phenylpyridine] | 1.38 | – | – | – | Ki [2, 6]: 3.02 µM; Ki [3, 7]: 5.37 µM; Ki [4, 8]: 0.891 µM
CCNC(=O)C1=C(CC)NC(COCCN)=C(C(=O)NCCCN2CCC(C(=O)OC)(c3ccccc3)CC2)C1c1ccc([N+](=O)[O-])cc1 (stereo not drawn) [Example 233, 2-((2-Aminoethyl)oxy)methyl-6-ethyl-5-N-ethylcarboxamido-1,4-dihydro-3-(N-(3-(4-methoxycarbonyl-4-phenylpiperidin-1-yl)propyl))carboxamido-4-(4-nitro)phenylpyridine] | 1.62 | 4.79 | 8.71 | 1.66 | –
CCC1=C(C(N)=O)C(c2ccc([N+](=O)[O-])cc2)C(C(=O)NCCCN2CCC(C(=O)OC)(c3ccccc3)CC2)=C(COCCN)N1 (stereo not drawn) [Example 234, 2-((2-Aminoethyl)oxy)methyl-5-carboxamido-6-ethyl-1,4-dihydro-3-(N-(3-(4-methoxycarbonyl-4-phenylpiperidin-1-yl)propyl)) carboxamido-4-(4-nitro)phenylpyridine] | 1.29 | – | – | – | Ki [2, 6]: 1.23 µM; Ki [3, 7]: 4.9 µM; Ki [4, 8]: 0.832 µM
CCC1=C(C(=O)OC)C(c2ccc([N+](=O)[O-])cc2)C(C(=O)NCCCN2CCC(C(=O)OC)(c3ccccc3)CC2)=C(COCCN)N1 (stereo not drawn) [Example 235, 2-((2-Aminoethyl)oxy)methyl-6-ethyl-1,4-dihydro-5-methoxycarbonyl-3-(N-(3-(4-methoxycarbonyl-4-phenylpiperidin-1-yl)propyl))carboxamido-4-(4-nitro)phenylpyridine] | 0.219 | 2.4 | 2.95 | 1.02 | –
CC(=O)C1=C(C)NC(COCCN)=C(C(=O)NCCCN2CCC(c3ccccc3)(c3ccccc3)CC2)C1c1ccc([N+](=O)[O-])cc1 (stereo not drawn) [Example 237, 5-Acetyl-2-((2-aminoethyl)oxy)methyl-1,4-dihydro-6-methyl-4-(4-nitro)phenyl 3-(N-(3-(4,4-diphenylpiperidin-1-yl)propyl)) carboxamidopyridine] | – | – | – | – | Ki ([1]; PKi alpha-1 1b, cloned human receptor, mean): 0.2 µM; Ki [2, 6]: 0.794 µM; Ki ([3]; PKi alpha-2 2b, [3H]rauwolscine, human receptor, LM(tk-) cell lysates, mean): 0.851 µM; Ki [4, 8]: 0.324 µM
CC(=O)C1=C(C)NC(COCCN)=C(C(=O)NCCCN2CCC(c3ccccc3)(c3ccccc3)CC2)C1c1ccc2c(c1)OCO2 (stereo not drawn) [Example 239, 5-Acetyl-2-((2-aminoethyl)oxy)methyl-1,4-dihydro-6-methyl-4-(3,4-methylenedioxy)phenyl-3-(N-(3-(4,4-dipheylpiperidin-1-yl)propyl))carboxamidopyridine] | – | – | – | – | Ki [1, 9]: 0.257 µM; Ki [2, 10]: 0.832 µM; Ki [3, 11]: 0.759 µM; Ki [4, 12]: 0.263 µM
CCOC(=O)C1(c2ccccc2)CCN(CCCNC(=O)C2=C(COC)NC(CC)=C(C(=O)O)C2c2ccc([N+](=O)[O-])cc2)CC1 (stereo not drawn) [Example 240, 3-(N-3-(4-Ethoxycarbonyl-4-phenylpiperidin-1-yl)propyl)carboxamido-6-ethyl-1,4-dihydro-2-(methyloxy)methyl-4-(4-nitro)phenylpyridine-5-carboxylic Acid] | – | 18.6 | 6.31 | 11.7 | Ki [1, 13]: 4.47 µM
COC(=O)C1(c2ccccc2)CCN(CCCNC(=O)C2=C(COCCCN)NC(C)=C(C(C)=O)C2c2ccc([N+](=O)[O-])cc2)CC1 (stereo not drawn) [Example 241, 5-Acetyl-2-((3-aminopropyl)oxy)methyl-1,4-dihydro-3-(N-(3-(4-methoxycarbonyl-4-phenylpiperidin-1-yl)propyl))carboxamido-6-methyl-4-(4-nitro)phenylpyridine] | – | 1.58 | 1.17 | 0.398 | Ki [1, 13]: 0.49 µM
CC(=O)C1=C(C)NC(COCCN)=C(C(=O)NCCCN2CCC(c3ccccc3)(c3ccccc3)CC2)C1c1ccc(F)cc1 (stereo not drawn) [Example 242, 5-Acetyl-2-((2-aminoethyl)oxy)methyl-4-(4-fluoro)phenyl-1,4-dihydro-6-methyl-3-(N-(3-(4,4-diphenylpiperidin-1-yl)propyl))carboxamidopyridine] | – | – | – | – | Ki [1, 9]: 0.0832 µM; Ki [2, 10]: 1.41 µM; Ki [3, 11]: 0.933 µM; Ki [4, 12]: 0.257 µM
CCOC(=O)C1(c2ccccc2)CCN(CCCNC(=O)C2=C(COCC(F)(F)F)NC(C)=C(C(N)=O)C2c2ccc([N+](=O)[O-])cc2)CC1 (stereo not drawn) [Example 243, 5-Carboxamido-3-(N-(3-(4-ethoxycarbonyl-4-phenylpiperidin-1yl)propyl))carboxamido-2-((2,2,2-trifluoroethyl)oxy)methyl-1,4dihydro-6-methyl-4-(4-nitro)phenylpyridine] | – | – | – | – | Ki [1, 13]: 0.759 µM; Ki [2, 10]: 2.24 µM; Ki ([3]; [3H]rauwolscine, human α2B receptor, LM(tk-) cells, read-out: PKi alpha-2 2b (converted)): 0.977 µM; Ki ([4]; [3H]rauwolscine, human α2C receptor, LM(tk-) cells, read-out: PKi alpha-2 2c (converted)): 1.07 µM
